From publication PMC9306661 (British Journal of Pharmacology, 2021)

Columns and labels:
Cel-AVR-14B/GLC-2 = biological target: T1, Cel-AVR-14B/GLC-2 (Caenorhabditis elegans, UniProt Q17328+Q17369); assay: two-electrode voltage clamp, Xenopus oocytes; assay type: cell-based
T1 sequence (Q17369 22-430): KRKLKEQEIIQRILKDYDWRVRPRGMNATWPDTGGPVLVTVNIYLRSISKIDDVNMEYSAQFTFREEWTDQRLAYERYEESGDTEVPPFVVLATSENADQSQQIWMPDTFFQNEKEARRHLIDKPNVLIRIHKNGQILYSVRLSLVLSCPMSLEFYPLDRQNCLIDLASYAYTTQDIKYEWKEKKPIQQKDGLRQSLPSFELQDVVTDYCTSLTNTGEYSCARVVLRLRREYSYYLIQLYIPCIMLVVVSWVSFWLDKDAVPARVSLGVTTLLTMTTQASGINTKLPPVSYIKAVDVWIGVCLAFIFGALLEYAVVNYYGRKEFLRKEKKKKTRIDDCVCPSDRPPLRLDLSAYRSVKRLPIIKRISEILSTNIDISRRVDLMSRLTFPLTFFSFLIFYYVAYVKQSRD
T1 sequence (Q17328 23-434): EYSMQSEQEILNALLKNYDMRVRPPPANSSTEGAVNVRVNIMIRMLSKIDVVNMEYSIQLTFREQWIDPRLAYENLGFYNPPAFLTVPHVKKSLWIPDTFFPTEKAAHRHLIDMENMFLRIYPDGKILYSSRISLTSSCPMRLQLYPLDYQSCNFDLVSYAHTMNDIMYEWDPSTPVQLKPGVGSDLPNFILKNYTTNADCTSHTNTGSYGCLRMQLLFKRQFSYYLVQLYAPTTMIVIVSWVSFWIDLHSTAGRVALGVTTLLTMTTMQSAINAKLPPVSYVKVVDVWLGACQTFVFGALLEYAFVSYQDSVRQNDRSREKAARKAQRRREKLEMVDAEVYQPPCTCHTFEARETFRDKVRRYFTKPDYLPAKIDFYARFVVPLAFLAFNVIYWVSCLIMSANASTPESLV

Pun-AVR-14B/GLC-2 = biological target: T2, Pun-AVR-14B/GLC-2 (Parascaris univalens, UniProt A0A894K7G1+A0A894KE58); assay: two-electrode voltage clamp, Xenopus oocytes; assay type: cell-based
T2 sequence (A0A894K7G1 19-428): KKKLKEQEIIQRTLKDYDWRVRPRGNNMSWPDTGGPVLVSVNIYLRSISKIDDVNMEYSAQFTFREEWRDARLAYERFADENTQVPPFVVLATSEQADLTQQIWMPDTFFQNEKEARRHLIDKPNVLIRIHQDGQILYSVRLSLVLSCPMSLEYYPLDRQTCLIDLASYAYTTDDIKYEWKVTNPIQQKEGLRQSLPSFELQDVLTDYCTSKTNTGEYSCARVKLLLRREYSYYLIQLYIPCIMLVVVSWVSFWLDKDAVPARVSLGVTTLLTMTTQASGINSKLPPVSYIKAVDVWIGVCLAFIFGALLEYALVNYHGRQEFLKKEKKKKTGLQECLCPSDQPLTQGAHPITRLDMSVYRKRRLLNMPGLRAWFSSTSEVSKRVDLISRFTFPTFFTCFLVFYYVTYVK
T2 sequence (A0A894KE58 21-448): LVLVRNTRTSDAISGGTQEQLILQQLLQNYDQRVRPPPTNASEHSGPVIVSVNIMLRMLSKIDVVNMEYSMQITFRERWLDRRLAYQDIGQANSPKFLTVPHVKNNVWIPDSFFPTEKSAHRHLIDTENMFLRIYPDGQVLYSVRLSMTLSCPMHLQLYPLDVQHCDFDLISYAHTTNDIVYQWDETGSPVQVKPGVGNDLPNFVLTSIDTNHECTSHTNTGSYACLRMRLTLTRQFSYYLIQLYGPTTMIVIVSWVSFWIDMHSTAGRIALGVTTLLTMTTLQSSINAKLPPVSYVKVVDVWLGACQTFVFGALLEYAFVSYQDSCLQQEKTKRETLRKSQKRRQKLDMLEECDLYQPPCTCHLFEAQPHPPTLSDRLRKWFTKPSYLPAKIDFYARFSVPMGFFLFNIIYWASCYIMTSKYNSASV

EC50 (Cel-AVR-14B/GLC-2): 19.4 µM
EC50 (Pun-AVR-14B/GLC-2): 10.9 µM
SMILES: N[C@@H](CCC(=O)O)C(=O)O [glutamate]
